For 8 compounds, Ki results are on record in US9963453B2, “Substituted pyrazino[1,2-a]indoles as sigma receptor activity modulators” (LABORATORIOS DEL DR. ESTEVE S.A., priority 2013, dated 2018).

For orientation: Ki means a dissociation constant, usually derived from enzyme kinetics or from competition with a known ligand. Lower therefore signals a stronger hold on the target.

For this assay, the target named is human sigma 1 receptor (Homo sapiens (Human), UniProt Q99720). As to the kind of experiment: Human Sigma 1 Receptor Radioligand Assay. In kind it is binding. To be noted: transfected HEK-293 membranes, 5 nM [3H](+)-pentazocine as radioligand, 37° C., 120 minutes. Here is the method: Human Sigma 1 Receptor Radioligand Assay
To investigate binding properties of sigma 1 receptor ligands to human sigma 1 receptor, transfected HEK-293 membranes and [^3H](+)-pentazocine (Perkin Elmer, NET-1056), as the radioligand, were used. The assay was carried out with 7 μg of membrane suspension, 5 nM of [^3H](+)-pentazocine in either absence or presence of either buffer or 10 μM Haloperidol for total and non-specific binding, respectively. Binding buffer contained Tris-HCl 50 mM at pH 8. Plates were incubated at 37° C. for 120 minutes. After the incubation period, the reaction mix was then transferred to MultiScreen HTS, FC plates (Millipore), filtered and plates were washed 3 times with ice-cold 10 mM TrisHCL (pH7.4). Filters were dried and counted at approximately 40% efficiency in a MicroBeta scintillation counter (Perkin-Elmer) using EcoScint liquid scintillation cocktail.

Sequence of human sigma 1 receptor (Q99720 whole entry): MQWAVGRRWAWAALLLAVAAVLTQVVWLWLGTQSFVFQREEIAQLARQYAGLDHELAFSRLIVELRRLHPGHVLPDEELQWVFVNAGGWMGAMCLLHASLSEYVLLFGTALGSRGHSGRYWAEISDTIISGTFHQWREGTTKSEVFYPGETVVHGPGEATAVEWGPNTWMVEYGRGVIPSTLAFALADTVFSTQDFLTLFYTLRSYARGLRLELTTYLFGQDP

As for `CCN(CC)CCNC(C)C(=O)N1CCn2c(cc3ccccc32)C1` (centres unmarked) [Example 30, 2-(2-(diethylamino)ethylamino)-1-(3,4-dihydropyrazino[1,2-a]indol-2(1H)-yl)propan-1-one], the Ki was determined as 241 nM. This lies in the sub-micromolar range.

As to `Cc1c2n(c3ccccc13)CCN(C(=O)CN1CCC(Cc3ccccc3)CC1)C2` [Example 15, 2-(4-benzylpiperidin-1-yl)-1-(10-methyl-3,4-dihydropyrazino[1,2-a]indol-2(1H)-yl)ethanone], the affinity, expressed as Ki, was 26.2 nM.

As for `C[C@@H](CN1CCN(C)CC1)C(=O)N1CCn2c(cc3ccccc32)C1` [Example 48, (S)-1-(3,4-dihydropyrazino[1,2-a]indol-2(1H)-yl)-2-methyl-3-(4-methylpiperazin-1-yl)propan-1-one], the Ki amounted to 142 nM. This Ki is about 5.4-fold higher than that of the compound before.

Turning to `CN1CCN(CCCC(=O)N2CCn3c(cc4ccccc43)C2)CC1` [Example 22, 1-(3,4-dihydropyrazino[1,2-a]indol-2(1H)-yl)-4-(4-methylpiperazin-1-yl)butan-1-one], the affinity corresponds to a Ki of 292 nM.

Consider `C[C@H](C(=O)N1CCN2c3ccccc3C[C@H]2C1)N1CCN(C2CCCCC2)CC1` [Example 51, (R)-2-(4-cyclohexylpiperazin-1-yl)-1-((S)-3,4,10,10a-tetrahydropyrazino[1,2-a]indol-2(1H)-yl)propan-1-one], for which the Ki was 59.9 nM.

`C[C@@H](C(=O)N1CCn2c(cc3ccccc32)C1)N1CCN(C)CC1` [Example 19, (S)-1-(3,4-dihydropyrazino[1,2-a]indol-2(1H)-yl)-2-(4-methylpiperazin-1-yl)propan-1-one] registered a Ki of 55.9 nM. This Ki and that of the compound before are within 1.5-fold of each other.

In the case of `CC(C(=O)N1CCn2c(cc3ccccc32)C1)N1CCN(C2CCCCC2)CC1` (centres unmarked) [Example 24, 2-(4-cyclohexylpiperazin-1-yl)-1-(3,4-dihydropyrazino[1,2-a]indol-2(1H)-yl)propan-1-one], the affinity, expressed as Ki, was 37.6 nM.

Turning to `O=C(CN1CCCCCC1)N1CCn2c(cc3cc(F)ccc32)C1` [Example 12, 2-(azepan-1-yl)-1-(8-fluoro-3,4-dihydropyrazino[1,2-a]indol-2(1H)-yl)ethanone], the affinity, expressed as Ki, was 14.6 nM.
